Experimental data as given in PMC8821551, “Binding of cationic analogues of α-MSH to lipopolysaccharide and disruption of the cytoplasmic membranes caused bactericidal action against Escherichia coli” (Scientific Reports, 2022).
Residues, ends and D or L forms follow the SMILES beside them.

Experiments:
dye-loaded E. coli cells = assay: Viability of DiSC3(5) dye-loaded cells by plating; type: cell-based, Escherichia coli; settings: dye-loaded cells 10^6, HEPES-glucose buffer, two different days
Method: The membrane depolarization of E. coli cells was determined using a potentiometric fluorescent probe DiSC3(5), as described elsewhere. Briefly, mid-log phase E. coli cells were diluted to 10^6 CFU/mL in the same HEPES-glucose buffer and were incubated with DiSC3(5) and EDTA at 0.4 µM and 0.2 mM concentrations, respectively, for 1 h in the dark at 37 °C, till the maximum uptake of the probe occurred. Increasing concentrations of the studied peptides from 1 µM to 10 µM were then added to these dye-loaded cells in a quartz cuvette, and the fluorescence intensity was measured on spectrofluorimeter (Shimadzu RF-5301 PC) set as excitation at 622 nm and emission at 670 nm. The increase in fluorescence intensity accounted for the dissipation of membrane potential caused due to peptide treatment. Cells treated with 10 µM melittin were used as a positive control. Simultaneously, the dye-loaded cells were plated onto LB agar to estimate bacterial cell death.
Figure S1: Survival of dye-loaded cells (10^6) treated with various concentrations of peptides that correspond to the inner membrane depolarization. The dye-loaded E. coli cells suspended in HEPES-glucose buffer ([…]) were incubated with different concentration of α-MSH and its analogues for 2 minutes and further diluted in the same buffer and plated on LB agar plates. The plates were further incubated at 37 °C for 16 h. Next day the colonies were counted.^1 The experiment was performed on two different days and the representative values (mean ± SE) are shown in graph. (⁎, P < 0.05; ⁎⁎, P < 0.01, compared to that of control at the same concentration).

LPS from E. coli O55:B5 = assay: LPS binding assay (BODIPY-TR-cadaverine displacement); parameters: species or system Escherichia coli; settings: BC displacement, LPS 50 μg/mL, 5 µM BC, 50 mM Tris buffer pH 7.4, peptide 0.25 to 20 µM, Hill equation fit, mean Kd ± SD of two independent experiments, read-out: Kd (dissociation constant) with LPS
Method: The binding of α-MSH and its analogues to LPS was checked using BODIPY-TR-cadaverine (BC) as a fluorescent probe[24],[42]. BC fluorescence decreases when bound to cell-free LPS and increases when it is freely accessible in solution. LPS (50 μg/mL) from E. coli O55:B5 (Sigma-Aldrich, India) was incubated with 5 µM of BC in 50 mM Tris buffer (pH 7.4) for 4 h. Next, 800 µL of this LPS-BC mixture was added to varying concentrations (0.25 µM to 20 µM) of the peptides in a quartz cuvette, and the BC fluorescence was measured on a spectrofluorimeter (Shimadzu RF-5301 PC) with excitation at 580 nm and emission at 620 nm. Each experiment was done in duplicate independently. Increase in fluorescence intensities with increase in concentration of peptides were plotted and the dissociation constant (Kd) was calculated from each individual data set and is presented as mean value ± SD using Igor Pro 6.36 (Y = Bmax × Xˆh/(Kdˆh + Xˆh); where X: concentration of peptide (µM), Y: fluorescence intensity (a.u.), h: Hill slope)[43]. The molecular mass of LPS was taken as 20,000 Da as described elsewhere, and its concentration was calculated accordingly.
Table S1: The dissociation constant (Kd) of α-MSH and its analogues with LPS. […]

E. coli cells = assay: LPS competitive inhibition assay; type: cell-based, Escherichia coli; settings: peptide fixed at 10 µM, free LPS beyond 128 µg/mL; 10^5 CFU/mL mid-log cells, 90 min, 37 °C; peptide without LPS = 100% mortality
Method: To determine whether LPS could influence the peptide’s antimicrobial activity, the potency of the most charged analogue, KKK-MSH, was evaluated against E. coli in the presence of LPS, using the protocol reported elsewhere. Peptide and LPS from E. coli […] (Sigma-Aldrich, India) in equal volume (50 µL) were incubated in a 96-well sterile plate at 37 °C for 1 h. After that, 100 μL of mid-log E. coli cells were added (at a final concentration of 10^5 CFU/mL) to the LPS-peptide mixture for 90 min at 37 °C. The peptide concentration was kept constant at 10 µM, and the concentration of LPS was varied from 2 to 1024 μg/mL. After incubation, 50 μL of the reaction mixture from each well was diluted with an appropriate amount of HEPES-glucose buffer, spread on LB agar plates, and kept at 37 °C for 16 h. Then on the next day, colonies were counted and compared with control (in the absence of LPS, cells treated with only peptide were considered 100% mortal). Mortality was calculated using the following formula: %survival=CFU/mLintreatedsample/CFU/mLinuntreatedsample×100Cellmortality(%)=100-%survival

[1] = peptide 10 µM, 2 min of exposure

Compound	log reduction in cell viability of dye-loaded cells (dye-loaded E. coli cells; peptide 5 µM, 2 min exposure)	log reduction in cell viability of dye-loaded cells (dye-loaded E. coli cells; [1])	Kd (LPS from E. coli O55:B5)	killing of E. coli cells in the presence of free LPS (E. coli cells)
CSCC[C@H](NC(=O)[C@H](CCCCN)NC(=O)[C@H](Cc1ccc(O)cc1)NC(=O)[C@H](CCCCN)NC(C)=O)C(=O)N[C@@H](C)C(=O)N[C@@H](Cc1c[nH]cn1)C(=O)N[C@@H](Cc1ccccc1)C(=O)N[C@@H](CCCNC(=N)N)C(=O)N[C@@H](Cc1c[nH]c2ccccc12)C(=O)NCC(=O)N[C@@H](CCCCN)C(=O)N1CCC[C@H]1C(=O)N[C@H](C(N)=O)C(C)C [KKA-MSH] (Ac-KYKMAHFRWGKPV-NH2)	1 log	1 log	–	–
CSCC[C@H](NC(=O)[C@H](CCCCN)NC(=O)[C@H](Cc1ccc(O)cc1)NC(=O)[C@H](CCCCN)NC(C)=O)C(=O)N[C@@H](CCCCN)C(=O)N[C@@H](Cc1c[nH]cn1)C(=O)N[C@@H](Cc1ccccc1)C(=O)N[C@@H](CCCNC(=N)N)C(=O)N[C@@H](Cc1c[nH]c2ccccc12)C(=O)NCC(=O)N[C@@H](CCCCN)C(=O)N1CCC[C@H]1C(=O)N[C@H](C(N)=O)C(C)C [KKK-MSH] (Ac-KYKMKHFRWGKPV-NH2)	1.73 log	2.1 log	9.8 ± 6.3 µM	less than 20%
